# From patent US4110327A, “2,3 Diketo-piperazinocarbonylamino alkanoic acids and derivatives” (Toyama Chemical Co., Ltd., priority 1974, dated 1978)
# Assays:
# [1] = test system: Proteus rettgeri; assay: MIC against clinical isolates; assay type: cell-based; conditions: clinical isolate, unit assumed
# [2] = test system: β-lactamase; assay: Resistant activity against β-lactamase, iodometric assay; assay type: biochemical, Pseudomonas aeruginosa GN 238; conditions: relative to Potassium Penicillin G = 100
# Procedure: (3) Resistant activity against β-lactamase, Pseudomonas aergionan GN 238:
# The resistant activity of each compound against β-lactamase was measured in the manner described below.
# β-Lactamase was prepared from Pseudomonas aeruginosa GN 238. This microorganism was cultured in 100 ml of a medium containing 2 g of yeast extract, 10 g of polypeptone, 2 g of glucose, 7 g of disodium hydrogen phosphate, 2 g of potassium dihydrogen phosphate, 1.2 g of ammonium sulfate and 0.4 g of magnesium sulfate, per liter, in a 500-ml Erlenmeyer flask for 6 hrs. at 37° C with shaking. The resulting cells were collected by centrifugation (5,000 r.p.m. × 10 min.), washed three times with 0.1 M phosphate buffer (pH 7.0). Subsequently, the cells were subjected to sonication (20 KHz, 20 min.) and then centrifuged at 15,000 r.p.m. for 60 min. By using the supernatant of enzyme fluid, the resistance of each compound against β-lactamase was determined by the iodometric assay method. Each numeral shown in Table 7 is a relative activity value calculated by assuming as 100 the activity of the control Potassium Penicillin G.
# [3] = test system: Escherichia coli NIHJ; assay: MIC against standard strain, plate method; assay type: cell-based; conditions: unit assumed
# Summary of the method: (§1)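 MIC values come from the plate method on heart infusion agar at pH 7.4, with each plate receiving 10^4 cells from a 10^6 cells/ml suspension.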
# [4] = test system: Pseudomonas aeruginosa I.F.O.; assay: MIC against standard strain, plate method; assay type: cell-based; conditions: unit assumed
# Summary of the method: as §1
# [5] = test system: Staphylococcus aureus 209p; assay: MIC against standard strain, plate method; assay type: cell-based; conditions: unit assumed
# Summary of the method: as §1
# [6] = test system: Proteus vulgaris 3027; assay: MIC against standard strain, plate method; assay type: cell-based; conditions: Proteus vulgaris 3027, standard strain; unit assumed
# Summary of the method: as §1
# [7] = test system: Klebsiella pneumoniae; assay: MIC against standard strain, plate method; assay type: cell-based; conditions: unit assumed
# Summary of the method: as §1
# [8] = test system: Proteus morganii; assay: MIC against clinical isolates; assay type: cell-based; conditions: clinical isolate, unit assumed
# [9] = test system: Escherichia coli; assay: MIC against clinical isolates; assay type: cell-based; conditions: unit assumed
# [10] = test system: Pseudomonas aeruginosa; assay: MIC against clinical isolates; assay type: cell-based; conditions: unit assumed
# [11] = test system: Proteus vulgaris; assay: MIC against clinical isolates; assay type: cell-based; conditions: clinical isolate, unit assumed
# [12] = test system: Staphylococcus aureus; assay: MIC against clinical isolates; assay type: cell-based; conditions: unit assumed
# [13] = test system: Proteus mirabilis; assay: MIC against clinical isolates; assay type: cell-based; conditions: clinical isolate, unit assumed
# [14] = test system: Klebsiella pneumoniae; assay: MIC against clinical isolates; assay type: cell-based; conditions: unit assumed
# [15] = test system: Salmonella typhi; assay: MIC against clinical isolates; assay type: cell-based; conditions: unit assumed
# [16] = test system: Salmonella typhi-murium; assay: MIC against clinical isolates; assay type: cell-based; conditions: unit assumed
# [17] = test system: Shigella flexneri; assay: MIC against clinical isolates; assay type: cell-based; conditions: unit assumed
# Procedure: (§2) The minimum inhibitory concentrations (MIC) was determined by the plate method disclosed in "Chemotherapy" (Japan), Vol. 16, (1968), pages 98 - 99. The culture medium used was a Heart infusion agar (pH 7.4). The number of the cells per plate used in the inoculum as 10^4 (10^6 cells/ml).
# (§3) MIC was determined in the same manner as in the preceding paragraph (1).
# [18] = test system: Shigella sonnei; assay: MIC against clinical isolates; assay type: cell-based; conditions: unit assumed
# Procedure: as §2, §3
smiles,measurement,setting,value
CCCCCCCCN1CCN(C(=O)N[C@@H](C(=O)N[C@@H]2C(=O)N3[C@@H]2SC(C)(C)[C@@H]3C(=O)O)c2ccccc2)CC1=O [compound 30],MIC,[1],12.5 µg/mL
same,Relative activity,[2],3%
same,MIC,[3],< 1.57 µg/mL
same,MIC,[4],25 µg/mL
same,MIC,[5],< 1.57 µg/mL
same,MIC,[6],3.13 µg/mL
same,MIC,[7],6.25 µg/mL
same,MIC,[8],3.13 µg/mL
same,MIC,[9]; clinical isolate GN 3435,12.5 µg/mL
same,MIC,[9]; clinical isolate GN 3452,25 µg/mL
same,MIC,[9]; clinical isolate GN 3465,50 µg/mL
same,MIC,[9]; clinical isolate GN 3481,25 µg/mL
same,MIC,[9]; clinical isolate GN 3611,> 200 µg/mL
same,MIC,[9]; clinical isolate K-1,12.5 µg/mL
same,MIC,[9]; clinical isolate K-2,25 µg/mL
same,MIC,[9]; clinical isolate K-3,> 200 µg/mL
same,MIC,[9]; clinical isolate K-4,12.5 µg/mL
same,MIC,[10]; clinical isolate GN 82,25 µg/mL
same,MIC,[10]; clinical isolate GN 163,25 µg/mL
same,MIC,[10]; clinical isolate GN 221,50 µg/mL
same,MIC,[10]; clinical isolate GN 376,50 µg/mL
same,MIC,[10]; clinical isolate GN 383,50 µg/mL
same,MIC,[10]; clinical isolate GN 1035,50 µg/mL
same,MIC,[10]; clinical isolate GN 1091,25 µg/mL
same,MIC,[10]; clinical isolate GN 2565,50 µg/mL
same,MIC,[10]; clinical isolate GN 2987,12.5 µg/mL
same,MIC,[10]; clinical isolate GN (number not given; Table 5-3),50 µg/mL
same,MIC,[10]; clinical isolate S-1,50 µg/mL
same,MIC,[10]; clinical isolate S-2,50 µg/mL
same,MIC,[10]; clinical isolate S-3,100 µg/mL
same,MIC,[10]; clinical isolate S-4,50 µg/mL
same,MIC,[11],3.13 µg/mL
same,MIC,[12]; clinical isolate F-1,3.13 µg/mL
same,MIC,[12]; clinical isolate F-2,0.79 µg/mL
same,MIC,[12]; clinical isolate F-3,0.79 µg/mL
same,MIC,[12]; clinical isolate F-4,3.13 µg/mL
same,MIC,[12]; clinical isolate F-5,100 µg/mL
same,MIC,[12]; clinical isolate MS 8588,1.57 µg/mL
same,MIC,[12]; clinical isolate MS 8596,1.57 µg/mL
same,MIC,[12]; clinical isolate MS 8619,< 0.4 µg/mL
same,MIC,[12]; clinical isolate MS 8684,1.57 µg/mL
same,MIC,[12]; clinical isolate MS 8713,1.57 µg/mL
same,MIC,[13],3.13 µg/mL
same,MIC,[14]; clinical isolate GN 917,25 µg/mL
same,MIC,[14]; clinical isolate GN 3850,25 µg/mL
same,MIC,[14]; clinical isolate GN 4081,100 µg/mL
same,MIC,[14]; clinical isolate GN 4117,100 µg/mL
"CC(C)N1CCN(C(=O)N[C@@H](C(=O)N[C@@H]2C(=O)N3[C@@H]2SC(C)(C)[C@@H]3C(=O)O)c2ccccc2)C(=O)C1=O (single isomer, unassigned) [compound 40]",MIC,[15]; clinical isolate SL 819,1.57 µg/mL
same,MIC,[15]; clinical isolate SL 2169,1.57 µg/mL
same,Relative activity,[2],15%
same,MIC,[3],< 0.1 µg/mL
same,MIC,[5],0.4 µg/mL
same,MIC,[6],0.4 µg/mL
same,MIC,[7],3.13 µg/mL
same,MIC,[16]; clinical isolate SL 858,6.25 µg/mL
same,MIC,[16]; clinical isolate SL 2136,> 200 µg/mL
same,MIC,[8],0.79 µg/mL
same,MIC,[9]; clinical isolate GN 3435,0.79 µg/mL
same,MIC,[9]; clinical isolate GN 3465,50 µg/mL
same,MIC,[9]; clinical isolate GN 3611,> 200 µg/mL
same,MIC,[9]; clinical isolate K-2,3.13 µg/mL
same,MIC,[9]; clinical isolate K-3,> 200 µg/mL
same,MIC,[9]; clinical isolate K-4,0.79 µg/mL
same,MIC,[10]; clinical isolate GN 376,3.13 µg/mL
same,MIC,[10]; clinical isolate GN 1035,25 µg/mL
same,MIC,[10]; clinical isolate GN 2565,12.5 µg/mL
same,MIC,[10]; clinical isolate GN 2987,3.13 µg/mL
same,MIC,[10]; clinical isolate S-1,12.5 µg/mL
same,MIC,[10]; clinical isolate S-2,25 µg/mL
same,MIC,[10]; clinical isolate S-3,25 µg/mL
same,MIC,[10]; clinical isolate S-4,12.5 µg/mL
same,MIC,[11],< 0.4 µg/mL
same,MIC,[17]; clinical isolate JS 11215,50 µg/mL
same,MIC,[17]; clinical isolate JS 11839,3.13 µg/mL
same,MIC,[18]; clinical isolate JS 11232,50 µg/mL
same,MIC,[18]; clinical isolate JS 11755,3.13 µg/mL
same,MIC,[12]; clinical isolate F-2,3.13 µg/mL
same,MIC,[12]; clinical isolate F-3,0.79 µg/mL
same,MIC,[12]; clinical isolate F-5,> 200 µg/mL
same,MIC,[12]; clinical isolate MS 8588,3.13 µg/mL
same,MIC,[12]; clinical isolate MS 8596,3.13 µg/mL
same,MIC,[12]; clinical isolate MS 8619,0.79 µg/mL
same,MIC,[12]; clinical isolate MS 8684,3.13 µg/mL
same,MIC,[12]; clinical isolate MS 8713,12.5 µg/mL
same,MIC,[13],< 0.4 µg/mL
same,MIC,[14]; clinical isolate GN 3850,12.5 µg/mL
same,MIC,[14]; clinical isolate GN 4081,100 µg/mL
same,MIC,[14]; clinical isolate GN 4117,50 µg/mL
"CC1(C)S[C@@H]2[C@H](NC(=O)Cc3ccccc3)C(=O)N2[C@H]1C(=O)O [Potassium Penicillin G, reference compound]",Relative activity,[2],100%
